System: NCI-H841 complex tumor spheroid viability
Assay: Anticancer human tumor NCI-H841 cell line growth inhibition;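 further: spheroids exposed to compounds for 7 days before readout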;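 on viability, T/C: 100% = DMSO vehicle control wells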
Conditions: for IC50: curve of first compound; for viability, T/C: stronger effect = lower value; active means viability on the fitted dose curve at most 10% of control; inactive means the rest
How it was run: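 Single agents and combinations were tested on spheroids built from tumor cells plus HUVEC and hMSC, at half-log dilutions starting at or near clinical Cmax, else 10 microM; final DMSO 0.25% (v/v).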

[1] = second compound 0.003 µM, first compound 0.0316 µM
[2] = second compound 0.003 µM, first compound 0.1 µM
[3] = second compound 0.003 µM, first compound 0.316 µM
[4] = second compound 0.003 µM, first compound 1 µM
[5] = second compound 0.003 µM, first compound 3.16 µM
[6] = second compound 0.003 µM, first compound 10 µM

COc1ccc([C@@H](O)c2cc(-c3ncnc4cc(N5CCOCC5)ccc34)c(F)cc2Cl)nn1 + COc1cc2c(cc1O)CCNC21CSC2c3c(OC(C)=O)c(C)c4c(c3C(COC1=O)N1C(O)C3Cc5cc(C)c(OC)c(O)c5C(C21)N3C)OCO4
active: viability, T/C (second compound 30 pM, first compound 10 µM) 4.01% | viability, T/C (second compound 94.9 pM, first compound 10 µM) 1.62% | viability, T/C (second compound 0.0003 µM, first compound 1 µM) 4.22% | viability, T/C (second compound 0.0003 µM, first compound 3.16 µM) 0.62% | viability, T/C (second compound 0.0003 µM, first compound 10 µM) 0.12% | viability, T/C (second compound 0.000949 µM, first compound 0.0316 µM) 2.69% | viability, T/C (second compound 0.000949 µM, first compound 0.1 µM) 2.87% | viability, T/C (second compound 0.000949 µM, first compound 0.316 µM) 1.76% | viability, T/C (second compound 0.000949 µM, first compound 1 µM) 0.09% | viability, T/C (second compound 0.000949 µM, first compound 3.16 µM) 0.02% | viability, T/C (second compound 0.000949 µM, first compound 10 µM) 0.14% | viability, T/C [1] 0.13% | viability, T/C [2] 0.12% | viability, T/C [3] 0.14% | viability, T/C [4] 0.16% | viability, T/C [5] 0.19% | viability, T/C [6] 0.27%
inactive: viability, T/C (second compound 30 pM, first compound 0.0316 µM) 102% | viability, T/C (second compound 30 pM, first compound 0.1 µM) 99.6% | viability, T/C (second compound 30 pM, first compound 0.316 µM) 96% | viability, T/C (second compound 30 pM, first compound 1 µM) 86.7% | viability, T/C (second compound 30 pM, first compound 3.16 µM) 47.5% | viability, T/C (second compound 94.9 pM, first compound 0.0316 µM) 99.4% | viability, T/C (second compound 94.9 pM, first compound 0.1 µM) 94.5% | viability, T/C (second compound 94.9 pM, first compound 0.316 µM) 86.4% | viability, T/C (second compound 94.9 pM, first compound 1 µM) 50.3% | viability, T/C (second compound 94.9 pM, first compound 3.16 µM) 16.4% | viability, T/C (second compound 0.0003 µM, first compound 0.0316 µM) 31.4% | viability, T/C (second compound 0.0003 µM, first compound 0.1 µM) 34.4% | viability, T/C (second compound 0.0003 µM, first compound 0.316 µM) 16.9%
< 31.6 nM: IC50 (second compound 0.0003 µM) | IC50 (second compound 0.000949 µM) | IC50 (second compound 0.003 µM)
2950 nM: IC50 (second compound 30 pM)
1040 nM: IC50 (second compound 94.9 pM)

COc1ccc([C@@H](O)c2cc(-c3ncnc4cc(N5CCOCC5)ccc34)c(F)cc2Cl)nn1 + CC[C@@]1(O)C(=O)OCc2c1cc1n(c2=O)Cc2cc3c(CN(C)C)c(O)ccc3nc2-1
3830 nM: IC50 (second compound 0.003 µM)
1220 nM: IC50 (second compound 0.00949 µM)
active: viability, T/C (second compound 0.00949 µM, first compound 10 µM) 6.04% | viability, T/C (second compound 0.03 µM, first compound 0.0316 µM) 4.02% | viability, T/C (second compound 0.03 µM, first compound 0.1 µM) 2.47% | viability, T/C (second compound 0.03 µM, first compound 0.316 µM) 1.69% | viability, T/C (second compound 0.03 µM, first compound 1 µM) 1.88% | viability, T/C (second compound 0.03 µM, first compound 3.16 µM) 1.8% | viability, T/C (second compound 0.03 µM, first compound 10 µM) 1.21% | viability, T/C (second compound 0.0949 µM, first compound 0.0316 µM) 1.56% | viability, T/C (second compound 0.0949 µM, first compound 0.1 µM) 1.55% | viability, T/C (second compound 0.0949 µM, first compound 0.316 µM) 1.96% | viability, T/C (second compound 0.0949 µM, first compound 1 µM) 1.31% | viability, T/C (second compound 0.0949 µM, first compound 3.16 µM) 0.92% | viability, T/C (second compound 0.0949 µM, first compound 10 µM) 0.89% | viability, T/C (second compound 0.3 µM, first compound 0.0316 µM) 1.74% | viability, T/C (second compound 0.3 µM, first compound 0.1 µM) 1.64% | viability, T/C (second compound 0.3 µM, first compound 0.316 µM) 1.32% | viability, T/C (second compound 0.3 µM, first compound 1 µM) 1.22% | viability, T/C (second compound 0.3 µM, first compound 3.16 µM) 0.55% | viability, T/C (second compound 0.3 µM, first compound 10 µM) 0.42%
inactive: viability, T/C [1] 95.6% | viability, T/C [2] 95.9% | viability, T/C [3] 94.9% | viability, T/C [4] 86.5% | viability, T/C [5] 58% | viability, T/C [6] 10.6% | viability, T/C (second compound 0.00949 µM, first compound 0.0316 µM) 83.1% | viability, T/C (second compound 0.00949 µM, first compound 0.1 µM) 83.6% | viability, T/C (second compound 0.00949 µM, first compound 0.316 µM) 76.3% | viability, T/C (second compound 0.00949 µM, first compound 1 µM) 52.6% | viability, T/C (second compound 0.00949 µM, first compound 3.16 µM) 27.9%
< 31.6 nM: IC50 (second compound 0.03 µM) | IC50 (second compound 0.0949 µM) | IC50 (second compound 0.3 µM)

CNCc1ccc(-c2cc(-c3nc(-c4ccc(S(=O)(=O)C(C)C)cc4)cnc3N)on2)cc1 + CC[C@@]1(O)C(=O)OCc2c1cc1n(c2=O)Cc2cc3c(CN(C)C)c(O)ccc3nc2-1
inactive: viability, T/C (second compound 0.003 µM, first compound 0.00949 µM) 89.3% | viability, T/C (second compound 0.003 µM, first compound 0.03 µM) 78.7% | viability, T/C (second compound 0.003 µM, first compound 0.0949 µM) 25.8% | viability, T/C (second compound 0.00949 µM, first compound 0.00949 µM) 49.2% | viability, T/C (second compound 0.00949 µM, first compound 0.03 µM) 35.6%
< 9.49 nM: IC50 (second compound 0.00949 µM) | IC50 (second compound 0.03 µM) | IC50 (second compound 0.0949 µM) | IC50 (second compound 0.3 µM)
56.1 nM: IC50 (second compound 0.003 µM)
active: viability, T/C (second compound 0.003 µM, first compound 0.3 µM) 5.41% | viability, T/C (second compound 0.003 µM, first compound 0.949 µM) 1.29% | viability, T/C (second compound 0.003 µM, first compound 3 µM) 0.44% | viability, T/C (second compound 0.00949 µM, first compound 0.0949 µM) 7.71% | viability, T/C (second compound 0.00949 µM, first compound 0.3 µM) 1.95% | viability, T/C (second compound 0.00949 µM, first compound 0.949 µM) 1% | viability, T/C (second compound 0.00949 µM, first compound 3 µM) 0.31% | viability, T/C (second compound 0.03 µM, first compound 0.00949 µM) 1.53% | viability, T/C (second compound 0.03 µM, first compound 0.03 µM) 4.09% | viability, T/C (second compound 0.03 µM, first compound 0.0949 µM) 1.25% | viability, T/C (second compound 0.03 µM, first compound 0.3 µM) 1.64% | viability, T/C (second compound 0.03 µM, first compound 0.949 µM) 0.71% | viability, T/C (second compound 0.03 µM, first compound 3 µM) 0.17% | viability, T/C (second compound 0.0949 µM, first compound 0.00949 µM) 1.32% | viability, T/C (second compound 0.0949 µM, first compound 0.03 µM) 3.66% | viability, T/C (second compound 0.0949 µM, first compound 0.0949 µM) 0.92% | viability, T/C (second compound 0.0949 µM, first compound 0.3 µM) 0.89% | viability, T/C (second compound 0.0949 µM, first compound 0.949 µM) 0.76% | viability, T/C (second compound 0.0949 µM, first compound 3 µM) 0.15% | viability, T/C (second compound 0.3 µM, first compound 0.00949 µM) 1.45% | viability, T/C (second compound 0.3 µM, first compound 0.03 µM) 1.41% | viability, T/C (second compound 0.3 µM, first compound 0.0949 µM) 1.07% | viability, T/C (second compound 0.3 µM, first compound 0.3 µM) 0.61% | viability, T/C (second compound 0.3 µM, first compound 0.949 µM) 2.25% | viability, T/C (second compound 0.3 µM, first compound 3 µM) 0.16%
